{"source": "patent US11613560B2", "about": "“Bicyclic peptide ligands specific for OX40” (BicycleTx Limited, priority 2019, dated 2023)", "molecular_target": "T1, OX40 (Homo sapiens, UniProt P43489)", "T1 construct": "host or cells: OX40 Jurkat cells (NF-kB luciferase reporter)", "T1 sequence (P43489 29-277)": "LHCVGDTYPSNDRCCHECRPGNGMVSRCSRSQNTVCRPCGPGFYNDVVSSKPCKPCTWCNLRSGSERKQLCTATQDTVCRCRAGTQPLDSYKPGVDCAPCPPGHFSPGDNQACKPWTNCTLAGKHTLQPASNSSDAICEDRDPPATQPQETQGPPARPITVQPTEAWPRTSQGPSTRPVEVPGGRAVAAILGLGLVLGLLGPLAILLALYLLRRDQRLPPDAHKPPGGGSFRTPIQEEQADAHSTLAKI", "test": "Promega OX40 cell-activity assay (NF-κB luciferase read-out in OX40 Jurkat cells)", "format": "cell-based", "conditions": "synthetic OX40 tetramer, FIG. 1", "procedure": "Promega have developed an OX40 cell-activity assay that uses NF-κB luciferase luminescence as a read-out of OX40 activation in Jurkat cells (Promega CS197704). On the day of the experiment, prepare medium by thawing FBS and adding 5% FBS to RPMI-1640. Thaw OX40 Jurkat cells in the water-bath and then add 500 μl cells to 11.5 ml pre-warmed 5 FBS RPMI-1640 medium. Add 60 μl cells/well to white cell culture plates. Proceed to dilute agonists at concentration giving the maximum fold induction and then titrate down the amount in a sterile 96 well-plate. […] Prepare enough reagent for duplicate samples and then perform ⅓ dilution series or 1/10 dilution series. Include positive control OX40L trimer (R&D systems #1054-OX-010) and negative control monomeric peptide. Add 20 μl of agonist as duplicate samples or 5% FBS RPMI-1640 alone as background control.\nCo-incubate cells together with agonists for 5 hours at 37° C., 5% CO2. After 5 hours, thaw Bio-Glo™ and develop the assay at room-temperature. Add 80 μl Bio-Glo™ per well and incubate 5-10 min. Read luciferase signal on CLARIOStar plate-reader using the MARS program and normalize the fold induction relative to background (medium alone). Analyse data by transforming the data to x=log (X), then plot log (agonist) vs. response variable slope (4 parameters) to calculate EC50 values.", "data": [{"smiles": "CC(C)C[C@@H]1NC(=O)[C@@H](NC(=O)[C@H](C)N)CSCCC(=O)N2CN3CN(C2)C(=O)CCSC[C@H](NC(=O)[C@@H]2CCCN2C(=O)[C@H](CO)NC(=O)[C@H](Cc2ccc(O)cc2)NC1=O)C(=O)N[C@@H](Cc1c[nH]c2ccccc12)C(=O)N[C@@H](Cc1c[nH]cn1)C(=O)N1CCC[C@H]1C(=O)N[C@@H](CC(C)C)C(=O)N[C@@H](CC(N)=O)C(=O)N[C@@H](CC(=O)O)C(=O)N[C@H](C(=O)N[C@@H](C)C(=O)N[C@@H](CCCCNC(=O)CCc1cn(CCOCCOCCOCCOCCOCCOCCOCCOCCOCCOCCOCCOCCOCCOCCOCCOCCOCCOCCOCCOCCOCCOCCOCCNC(=O)CCOCC(COCCC(=O)NCCOCCOCCOCCOCCOCCOCCOCCOCCOCCOCCOCCOCCOCCOCCOCCOCCOCCOCCOCCOCCOCCOCCOCCn2cc(CCC(=O)NCCCC[C@H](NC(=O)[C@H](C)NC(=O)[C@@H]4CSCCC(=O)N5CN6CN(C5)C(=O)CCSC[C@H](NC(=O)[C@@H]5CCCN5C(=O)[C@H](CO)NC(=O)[C@H](Cc5ccc(O)cc5)NC(=O)[C@H](CC(C)C)NC(=O)[C@@H](NC(=O)[C@H](C)N)CSCCC6=O)C(=O)N[C@@H](Cc5c[nH]c6ccccc56)C(=O)N[C@@H](Cc5c[nH]cn5)C(=O)N5CCC[C@H]5C(=O)N[C@@H](CC(C)C)C(=O)N[C@@H](CC(N)=O)C(=O)N[C@@H](CC(=O)O)C(=O)N4)C(N)=O)nn2)(COCCC(=O)NCCOCCOCCOCCOCCOCCOCCOCCOCCOCCOCCOCCOCCOCCOCCOCCOCCOCCOCCOCCOCCOCCOCCOCCn2cc(CCC(=O)NCCCC[C@H](NC(=O)[C@H](C)NC(=O)[C@@H]4CSCCC(=O)N5CN6CN(C5)C(=O)CCSC[C@H](NC(=O)[C@@H]5CCCN5C(=O)[C@H](CO)NC(=O)[C@H](Cc5ccc(O)cc5)NC(=O)[C@H](CC(C)C)NC(=O)[C@@H](NC(=O)[C@H](C)N)CSCCC6=O)C(=O)N[C@@H](Cc5c[nH]c6ccccc56)C(=O)N[C@@H](Cc5c[nH]cn5)C(=O)N5CCC[C@H]5C(=O)N[C@@H](CC(C)C)C(=O)N[C@@H](CC(N)=O)C(=O)N[C@@H](CC(=O)O)C(=O)N4)C(N)=O)nn2)COCCC(=O)NCCOCCOCCOCCOCCOCCOCCOCCOCCOCCOCCOCCOCCOCCOCCOCCOCCOCCOCCOCCOCCOCCOCCOCCn2cc(CCC(=O)NCCCC[C@H](NC(=O)[C@H](C)NC(=O)[C@@H]4CSCCC(=O)N5CN6CN(C5)C(=O)CCSC[C@H](NC(=O)[C@@H]5CCCN5C(=O)[C@H](CO)NC(=O)[C@H](Cc5ccc(O)cc5)NC(=O)[C@H](CC(C)C)NC(=O)[C@@H](NC(=O)[C@H](C)N)CSCCC6=O)C(=O)N[C@@H](Cc5c[nH]c6ccccc56)C(=O)N[C@@H](Cc5c[nH]cn5)C(=O)N5CCC[C@H]5C(=O)N[C@@H](CC(C)C)C(=O)N[C@@H](CC(N)=O)C(=O)N[C@@H](CC(=O)O)C(=O)N4)C(N)=O)nn2)nn1)C(N)=O)CSCCC3=O", "note": "[BCY12019]", "values": [{"measurement": "EC50 (range in words)", "value": "low nanomolar range"}]}]}
